The structures appear in SMILES notation. Some results are limits rather than exact numbers.

In this data set the test system is P388. Kind of data set: P388 transplant model in mice. It counts as in vivo. As to conditions: for ALS (average life span): control 16.6 ± 1.8 d. On the procedure:
To preliminary estimate the antitumor effect of the compound in vivo, transplant P388 and HCT116 xenograft mouse models were used.
Prior to the trials, the animals were split into different groups (five mice per group). One group was monitored as a control population, where the animals were kept untreated, while the other groups were subjected to the tested compound. […] Four independent trials were carried out.
For the first evaluation, the sample was initially injected i.p. on day 2 of the study, and the treatment was subsequently continued during the following 9 days (total 10 d course). The typical doses were calculated considering the average body weight of the animals (20 g) and ranged between groups 1 and 3; group 4 was assigned as a control population. […] To verify the obtained results, we performed the second evaluation using the following schedule: the first group was administered i.p. with 500 mg/kg (5000 mg/kg), the second group was given 750 mg/kg (7500 mg/kg), and the third group was given 1000 mg/kg (10,000 mg/kg). We also carried out the third trial with an appropriate dose of 1000 mg/kg. For p.o. administration (trial 4), we used a single dose (170 mg/kg) of the unmodified compound; the cumulative dose was 1700 mg/kg.
DBA2 mice were used as donors of cancerous mass; a total of 50 animals were recruited. Twenty-three conventional, immunodeficient female mice (BALB/c nude, 20–23 g) were housed in RAMS and used as donors and recipients for HCT116 cells.
For the evaluation of the compound against leucosis in vivo, we used 5 and 8 passages of P388 culture. […]

Where [1] appears, read: first trial, i.p. 295 mg/kg (g1).
[2] abbreviates: first trial, i.p. 882 mg/kg (g2).

The T/C is the ratio of treated to control. Turning to `CCOc1ccc(N2C(=O)C3(NC2=S)C(c2ccc(Cl)cc2)CN(C)C32C(=O)Nc3ccc(Br)cc32)cc1` (stereo not shown) [Compound 29], the “mortality at highest dose, close to the MTD” value (1263 mg/kg (12,630 mg/kg cumulative), day 3 after the treatment was stopped) is “one mouse (bw = 19 g) dying”. The “days on which lethal outcomes were registered” value was 16 to 24 days under setting [1] and 18 to 22 days under setting [2]. In addition, the “LSE (lifespan extension)” value reads like this: (first trial, i.p. 295 mg/kg (g1), p > 0.05) 17%; (first trial, i.p. 882 mg/kg (g2), p > 0.05) 19%. Also, the “ALS (average life span)” value by setting is: under setting [1], 19.8 ± 3.0 days; under setting [2], 19.4 ± 1.7 days. Also, the “days on which deaths were observed” value (first trial, i.p. 1176 mg/kg (g3)) was 14 to 22 days. Further, the TGRI reads like this: (first trial, i.p. 1176 mg/kg (g3), subsequent three days) 40%; (first trial, i.p. 1176 mg/kg daily (g3), 24 h after the treatment was discontinued) 76%; (i.p. 500 mg/kg) “approx. 50%”; (second trial, i.p. 750 mg/kg o.d., day 2 after the treatment was completed, p = 0.002) 68%; (second trial, i.p. 750 mg/kg o.d., subsequent 3 days) 62%; (third trial, i.p. 1000 mg/kg o.d. 10 days, day 2 after the treatment was completed) 81.3%. Moreover, the TGRI by setting is: (third trial, i.p. 1000 mg/kg o.d., day 8 after the treatment was discontinued (final control timepoint)) 93%; (third trial, i.p. 1000 mg/kg o.d., following 3 days) 89%. Under “first trial, i.p. o.d. 10 days, 295 and 882 mg/kg”, the T/C was less than 42%. In addition, the “TGRI (tumor growth rate inhibition)” value (first trial, sample (17% compound, Pluronic F-127) i.p. o.d. 10 days, 295 mg/kg (g1) and 882 mg/kg (g2), p > 0.05) is 32–37%. This compound had a Т/C% (p.o. 170 mg/kg o.d. 10 days, day 12) of 84%. Besides, the “Tumor volume, av. volume” value reads like this: (p.o. 170 mg/kg o.d. 10 days, day 12, control 570) 481 mm3; (p.o. 170 mg/kg o.d. 10 days, day 15, control 804) 1099 mm3. Also, for the setting “third trial, i.p. 1000 mg/kg o.d.”, the LSE came out at 33.33%.

These data come from article PMC9919490, “Synthesis and Biological Evaluation of Novel Dispiro-Indolinones with Anticancer Activity” (Molecules, 2023).
